# Earlier results in patent publication US20230190776A1, “ENCAPSULATION OF BIOACTIVE INGREDIENTS BY MULTIPLEX EMULSION” (The Board of Regents of the University of Texas System, priority 2021, published 2023).
# Conditions: up to 14 weeks of administrations; species not given
compound,measurement,value
O=C1CCC[C@@H]2[C@H]3CCC[N+]4([O-])CCC[C@@H](CN12)[C@@H]34 (stereo partly shown) [Oxymatrine],lethal dose,around 300 mg/kg
